Measured values: patent publication US6465492B1, “Heterocyclic compounds” (Sinon Corporation, priority 2001, dated 2002)

Test system: aphids
Test: Biological test on aphid (spray on cabbage leaf in Petri dishes)
Format: in vivo
Details: for Number of dead aphids 1st: 1st Petri dish; for Number of dead aphids 1st / Number of dead aphids 2nd / Number of dead aphids 3rd / Number of dead aphids 4th: 20 aphids on cabbage leaf, 9.6% w/w pesticide reagent diluted 1000 times with water, sprayed, examined after 24 hours; for Number of dead aphids 2nd: 2nd Petri dish; for Number of dead aphids 3rd: 3rd Petri dish; for Number of dead aphids 4th: 4th Petri dish; for Number of dead aphids average: average of four Petri dishes
Method: 9.6 g of the compound (based on the active ingredient) obtained from Example 1 was blended with 90.4 g of a solvent to form a 9.6% w/w pesticide reagent An 8 cm×8 cm piece of cabbage leaf was placed on a lump of wetted cotton in each one of four Petri dishes. 20 aphids were subsequently put on the cabbage leaf in each one of the Petri dishes. The thus formed pesticide reagent was diluted 1000 times with water to form a diluted solution which was then sprayed onto the cabbage leaf in each one of the Petri dishes in a predetermined amount. The number of dead aphids in each one of the Petri dishes was examined after 24 hours.
Example 13 was repeated, except that the compound employed in Example 13 was replaced by the compound obtained from a respective one of the Examples 2 to 12.
Example 13 was repeated, except that the compound employed in Example 13 was replaced by imidachloprid which is a heterocyclic compound of the formula disclosed in U.S. Pat. No. 4,742,060.
Table 2 lists the effectiveness of the pesticide reagents prepared in Examples 13 to 24 and the Comparative Example 1.

[1] = 20 aphids each, 9.6% w/w reagent diluted 1000 times, after 24 hours

Structure (SMILES) | Number of dead aphids 1st | Number of dead aphids 2nd | Number of dead aphids 3rd | Number of dead aphids 4th | Number of dead aphids average [1] | Effectiveness (higher value indicates greater effectivity, four Petri dishes, 20 aphids each, 9.6% w/w reagent diluted 1000 times, after 24 hours)
CS(=O)(=O)/N=C1\NCCN1Cc1ccc(Cl)nc1 [Example 15, 3-(2-chloro-5-pyridylmethyl)-2-[methylsulfonylimino] imidazolidine] | 16 | 18 | 19 | 19 | 18 | –
CS(=O)(=O)/N=C1\OCCN1Cc1ccc(Cl)nc1 [Example 22, 3-(2-chloro-5-pyridylmethyl)-2-[methylsulfonylimino]oxazolidine] | 18 | 16 | 19 | 17 | 17.5 | –
O=S(=O)(N=C1SCCN1Cc1ccc(Cl)nc1)c1ccc(Cl)cc1 [Example 23, 3-(2-chloro-5-pyridylmethyl)-2-[(4-chlorophenyl)sulfonylimino]thiazolidine] | 18 | 18 | 16 | 18 | 17.5 | –
O=S(=O)(N=C1NCCN1Cc1ccc(Cl)nc1)c1ccc(Cl)cc1 [Example 17, 3-(2-chloro-5-pyridylmethyl)-2-[(4-chlorophenyl)sulfonylimino]imidazolidine] | 20 | 18 | 19 | 20 | 19.25 | –
Cc1ccc(S(=O)(=O)N=C2OCCN2Cc2ccc(Cl)nc2)cc1 [Example 20, 3-(2-chloro-5-pyridylmethyl)-2-[(4-methylphenyl)sulfonylimino]oxazolidine] | 17 | 16 | 18 | 15 | 16.5 | –
Cc1ccc(S(=O)(=O)N=C2NCCCN2Cc2ccc(Cl)nc2)cc1 [Example 14, 3-(2-chloro-5-pyridylmethyl)-2-[(4-methylphenyl)sulfonylimino]tetrahydropyrimidine] | 16 | 17 | 17 | 16 | 16.5 | –
CS(=O)(=O)N=C1NCCCN1Cc1ccc(Cl)nc1 [Example 16, 3-(2-chloro-5-pyridylmethyl)-2-[methylsulfonylimino]tetrahydropyrimidine] | 17 | 17 | 19 | 19 | 18 | –
O=[N+]([O-])/N=C1\NCCN1Cc1ccc(Cl)nc1 [Comparative Example 1, imidachloprid, reference compound] | 18 | 17 | 18 | 16 | 17.25 | 86.08
O=S(=O)(N=C1OCCN1Cc1ccc(Cl)nc1)c1ccc(Cl)cc1 [Example 24, 3-(2-chloro-5-pyridylmethyl)-2-[(4-chlorophenyl)sulfonylimino]oxazolidine] | 15 | 18 | 19 | 19 | 17.75 | –
Cc1ccc(S(=O)(=O)N=C2NCCN2Cc2ccc(Cl)nc2)cc1 [Example 13, 3-(2-chloro-5-pyridylmethyl)-2-[(4-methylphenyl)sulfonylimino]imidazolidine] | 15 | 18 | 16 | 17 | 16.5 | –
O=S(=O)(N=C1NCCCN1Cc1ccc(Cl)nc1)c1ccc(Cl)cc1 [Example 18, 3-(2-chloro-5-pyridylmethyl)-2-[(4-chlorophenyl)sulfonylimino]tetrahydropyrimidine] | 19 | 19 | 19 | 17 | 18.5 | –
CS(=O)(=O)/N=C1\SCCN1Cc1ccc(Cl)nc1 [Example 21, 3-(2-chloro-5-pyridylmethyl)-2-[methylsulfonylimino]thiazolidine] | 16 | 18 | 19 | 18 | 17.75 | –
Cc1ccc(S(=O)(=O)N=C2SCCN2Cc2ccc(Cl)nc2)cc1 [Example 19, 3-(2-chloro-5-pyridylmethyl)-2-[(4-methylphenyl)sulfonylimino]thiazolidine] | 17 | 16 | 18 | 17 | 17 | –
